From PMC11662004 (Communications Chemistry, 2024)
pIC50: −log10 of the molar value. Where “and” joins values, the source holds several entries; their conditions need not be identical. Equal entries are not always repeated. Where two headings read alike, the source gives them in different places. Positions of bridges follow the written chain, without caps; N, C: chain ends. Non-standard residues stand in square brackets, D forms with d. Residues, ends and D or L forms follow the SMILES beside them.

Experiments:
[1] = molecular target: T1, NgTet1 (Naegleria gruberi, UniProt D2W6T1); assay: biochemical
T1 construct: His6-tagged full-length Naegleria gruberi NgTet1 (321 a. a.) protein with a thrombin cleavage site; made in house; host or cells: E. coli BL21(DE3)
T1 sequence (D2W6T1 1-321): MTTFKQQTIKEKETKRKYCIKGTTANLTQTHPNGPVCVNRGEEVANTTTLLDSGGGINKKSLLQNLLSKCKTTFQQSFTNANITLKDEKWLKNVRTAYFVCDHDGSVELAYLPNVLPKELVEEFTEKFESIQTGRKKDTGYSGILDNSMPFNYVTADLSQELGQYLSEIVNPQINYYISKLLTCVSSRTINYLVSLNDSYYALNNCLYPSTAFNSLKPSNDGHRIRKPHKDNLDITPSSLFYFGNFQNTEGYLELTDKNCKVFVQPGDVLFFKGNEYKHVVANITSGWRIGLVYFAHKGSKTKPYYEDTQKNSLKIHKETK
Experimental: (Fig. 5a), were screened for inhibitory activity against NgTet1.
(§1) Activity was normalised against reactions containing vehicle (DMSO). […] AS data shown as the mean of three experimental replicates (n = 3; mean ± SD); ^1H NMR data plotted from two independent replicates (n = 2); tabulated data reported as the mean of two and three independent replicates for ^1H NMR and AS, respectively (n = 2–3, SD reported for n = 3). N. d.: not determined; AS: AlphaScreen.
Compounds in DMSO (100 nL) were pre-dispensed in a logarithmically linear concentration gradient onto 384-well ProxiPlates using an Echo® 550 acoustic liquid handler (Labcyte). NgTet1 was pre-incubated with the inhibitor dilution series in DMSO at room temperature for 10 min. Reactions were initiated by the addition of appropriate cofactors and DNA. […] The reactions were quenched by the addition of 30 mM EDTA (pH 4.2), 358 mM NaCl (5 μL) within the enzyme linear activity window (determined in Fig. S10). Concurrently, a mixture containing the anti-^5hmC antibody (1:2000 dilution) and AlphaScreen beads (1:62.5 dilution) in assay buffer was prepared and incubated at room temperature for 30 min. The AlphaScreen bead/antibody mixture was added to the quenched NgTet1 reactions (5 μL), and the complete mixture was incubated at room temperature for 1 h. Chemiluminescence was measured on a PHERAstar FS/FSX (BMG Labtech) equipped with an AlphaScreen 680 570 module. All AlphaScreen bead manipulations were performed under subdued lighting. Inhibition data was normalised to reactions containing vehicle only (1% v/v DMSO) and fitted using “log(inhibitor) vs. response—Variable slope (four parameters)” non-linear regression model on GraphPad Prism 5.

[2] = molecular target: T1, NgTet1; assay: biochemical; conditions: for normalised activity: NgTet1, NMR, 2 independent replicates
Experimental: as §1
All ^1H NMR spectra were recorded at 25 °C using D2O as a reference for internal deuterium lock on a Bruker Avance III 700 MHz equipped with an inverse TCI cryoprobe in 3 or 5 mm diameter tubes with a total sample volume of 160 or 565 μL, respectively. The water signal was reduced using Perfect Echo excitation sculpting suppression. Chemical shifts are reported in ppm relative to D2O (δH = 4.70 ppm).
NgTet1 was pre-incubated with inhibitor dilution series in DMSO-d6 at room temperature for 10 min (50 mM Tris-d11 [pH 7.5], 2% v/v DMSO-d6). Reactions were initiated by the addition of appropriate cofactors and DNA. […] The reactions were quenched by the addition of 9 mM NOG and 9 mM ZnCl2 in 90 mM Tris-d11 [pH 7.5] (20 μL) within the enzyme linear activity window (determined in Figure. S10). Samples were transferred to NMR tubes and subjected to ^1H NMR analysis. Data were processed as described above. Inhibition data was normalised to reactions containing vehicle only (1% v/v DMSO-d6) and fitted using “log(inhibitor) vs. response - Variable slope (four parameters)” non-linear regression model on GraphPad Prism 5.
Activity was normalised against reactions containing vehicle only (100% activity). Data is shown as the mean of 2 independent replicates (n = 2; […]
Fig. S10 Determination of linear NgTet1 enzymatic activity windows for inhibitor characterisation. a 1H NMR succinate detection time courses with no DNA, 5HC DNA (double- […]
complementary 5'-ACC AC5mC GGT GGT-3'). b AlphaScreen 5hmC detection time course using […]
courses shown. 1H NMR reaction conditions: 5 μM NgTet1, 2 mM sodium L-ascorbate, 100 μM […]
v/v D2O. DNA was added to a final concentration of 20 μM of double-stranded DNA. […]

SMILES: CC[C@H](C)[C@@H]1NC(=O)[C@H](CC(C)C)NC(=O)[C@@H](Cc2ccc(O)cc2)NC(=O)CSC[C@@H](C(N)=O)NC(=O)[C@H](CO)NC(=O)[C@H](Cc2c[nH]cn2)NC(=O)[C@H](CCC(=O)O)NC(=O)[C@H](Cc2c[nH]c3ccccc23)NC(=O)[C@H](Cc2c[nH]c3ccccc23)NC(=O)[C@H]([C@@H](C)O)NC(=O)[C@H](Cc2ccc(O)cc2)NC(=O)[C@H](Cc2ccc(O)cc2)NC(=O)[C@H](C)NC(=O)[C@H](Cc2ccc(O)cc2)NC1=O [TiP1] ({CH2CO}-[dY]LIYAYYTWWEHSC-NH2; thioether N-14)
- pIC50 [1]: 4.58
- normalised activity, % ([1]; AlphaScreen, -Log[inhibitor] (M) 8.73132): 115.665% and 99.133% and 91.2094% and 100% and 99.1774% and 99.7728% and 97.6796%
- uncoupled 2OG decarboxylase activity relative to control ([2]; 1.2 equivalents (6.17 μM) of ligand, no 5mC DNA substrate): 137%
- normalised activity, % ([2]; 5mC DNA, NMR, -Log[inhibitor] (M) 3.30103): 0.3831% and 0.8644%
- normalised activity, % ([2]; 5mC DNA, NMR, -Log[inhibitor] (M) 3.77815): 0%
- normalised activity, % ([2]; 5mC DNA, NMR, -Log[inhibitor] (M) 4.25527): 7.31% and 14.7287%
- normalised activity, % ([2]; 5mC DNA, NMR, -Log[inhibitor] (M) 4.73239): 78.5121% and 83.5696%
- normalised activity, % ([2]; 5mC DNA, NMR, -Log[inhibitor] (M) 5.20951): 98.5224% and 104.299%
- normalised activity, % ([2]; 5mC DNA, NMR, -Log[inhibitor] (M) 5.68664): 102.213% and 96.5096%
- normalised activity, % ([2]; 5mC DNA, NMR, -Log[inhibitor] (M) 6.16376): 101.348% and 99.8653%
- normalised activity, % ([2]; 5mC DNA, NMR, -Log[inhibitor] (M) 6.64088): 101.5% and 99.6319%
- normalised activity, % ([2]; 5mC DNA, NMR, -Log[inhibitor] (M) 7.118): 99.9781% and 101.169%
- normalised activity, % ([2]; 5mC DNA, NMR, -Log[inhibitor] (M) 7.59512): 101.989% and 101.514%
- normalised activity ([2]; -Log[inhibitor] (M) 3.30103): 1.539% and 0.6062%
- normalised activity ([2]; -Log[inhibitor] (M) 3.77815): 5.644% and 0.04671%
- normalised activity ([2]; -Log[inhibitor] (M) 4.25527): 23.0301% and 11.8368%
- normalised activity ([2]; -Log[inhibitor] (M) 4.73239): 129.261% and 95.1469%
- normalised activity ([2]; -Log[inhibitor] (M) 5.20951): 124.894% and 132.33%
- normalised activity ([2]; -Log[inhibitor] (M) 5.68664): 97.9138% and 111.807%
- normalised activity ([2]; -Log[inhibitor] (M) 6.16376): 101.603% and 106.324%
- normalised activity ([2]; -Log[inhibitor] (M) 6.64088): 102.045% and 105.397%
- normalised activity ([2]; -Log[inhibitor] (M) 7.118): 107.511% and 102.971%
- normalised activity ([2]; -Log[inhibitor] (M) 7.59512): 96.6941%
- pIC50 ([2]; IC50, 5mC DNA, NMR, 2OG decarboxylation with 20 µM 5mC DNA, 5 μM NgTet1, 50 μM 2OG): 4.54
- pIC50 ([2]; IC50, No DNA, NMR, uncoupled 2OG decarboxylation, no DNA, 5 μM NgTet1, 50 μM 2OG): 4.58
- pIC50 ([2]; IC50 across all assays, AS and 1H NMR assays): 4.54 to 4.59
- normalised activity, % ([2]; No DNA, NMR, -Log[inhibitor] (M) 3.30103): 1.539% and 0.6062%
- normalised activity, % ([2]; No DNA, NMR, -Log[inhibitor] (M) 3.77815): 5.644% and 0.04671%
- normalised activity, % ([2]; No DNA, NMR, -Log[inhibitor] (M) 4.25527): 23.0301% and 11.8368%
- normalised activity, % ([2]; No DNA, NMR, -Log[inhibitor] (M) 4.73239): 129.261% and 95.1469%
- normalised activity, % ([2]; No DNA, NMR, -Log[inhibitor] (M) 5.20951): 124.894% and 132.33%
- normalised activity, % ([2]; No DNA, NMR, -Log[inhibitor] (M) 5.68664): 97.9138% and 111.807%
- normalised activity, % ([2]; No DNA, NMR, -Log[inhibitor] (M) 6.16376): 101.603% and 106.324%
- normalised activity, % ([2]; No DNA, NMR, -Log[inhibitor] (M) 6.64088): 102.045% and 105.397%
- normalised activity, % ([2]; No DNA, NMR, -Log[inhibitor] (M) 7.118): 107.511% and 102.971%
- normalised activity, % ([2]; No DNA, NMR, -Log[inhibitor] (M) 7.59512): 96.6941%
- normalised activity, % ([2]; TiP1 statistical test, NMR, no DNA, NgTet1/TiP1 ratio 1:1.2, technical replicates): 140.602% and 133.857% and 142.6% and 131.935%
- normalised activity, % ([2]; TiP1 statistical test, NMR, no DNA, NgTet1/TiP1 ratio 1:3.7, technical replicates): 103.459% and 107.449% and 116.09% and 117.125%
